Test results published in PMC10077475, “DG9-conjugated morpholino rescues phenotype in SMA mice by reaching the CNS via a subcutaneous administration” (JCI Insight, 2023).

Assays:
Type in all cases: in vivo, mouse
SMN2 (ISS-N1 intron 7) = test: FL-SMN2 expression by RT-qPCR in mild SMA model (F0 mice); details: s.c. at PD5; PD7 (40 mg/kg) and PD13 (80 mg/kg)
Text: (§1) To target the motor neurons in the CNS via systemic administration, AOs need to cross the BBB in patients with SMA. For this study, we used a milder SMA model (F0) (Smn^–/– SMN2^+/+) with 4 SMN2 copies obtained from Jackson Laboratory (JAX 005058) that are viable, are fertile, and have shortened, thick tails since severe SMA model mice have a median survival of only 8 days, making it difficult to evaluate the treatment efficacy when the BBB is mature. […] To determine the ability of DG9-PMO to reach the CNS, we subcutaneously injected 40 mg/kg or 80 mg/kg fluorescently tagged DG9-PMO into F0 mice at PD0 or PD5. […] We also performed an ELISA to examine the biodistribution of unconjugated PMO and DG9-PMO at PD7.
Frozen tissues harvested at PD7 were sectioned using a cryostat (Leica CM 1950) into 20 μm sections. […] The relative gene expression for FL-SMN2 over the deletion of SMN2 transcripts without exon 7 was normalized to the NT control samples and analyzed using the ΔΔCt method. The expression of denervation markers relative to 18S was normalized to the healthy heterozygous control samples collected at PD30 and analyzed using the ΔΔCt method.

[1] = ELISA, PMO uptake in mild SMA model (F0 mice) injected at PD5; details: 40 mg/kg s.c. at PD5, tissues at PD7, ELISA
Text: as §1
ELISA was performed as described previously ([51], [69]). In brief, protein was extracted from frozen tissue sections (~20 μm) using RIPA buffer with cOmplete, Mini, EDTA-free protease inhibitor cocktail. The probes (Integrated DNA Technologies) were designed complementary to the PMO sequence with phosphorothioated backbones at the 5′ and 3′ ends. The 5′ and 3′ ends were labeled with digoxigenin and biotin, respectively. […] Attophos AP Fluorescent Substrate (Promega) was added to the PMO/DG9-PMO probes, and fluorescence was detected at 444 nm excitation and 555 nm emission by using a monochromator SpectraMax M3 plate reader (Molecular Devices).

SMN protein = SMN protein levels by Western blotting in tissues of severe SMA mice
Experimental: To evaluate the change of FL-SMN2 expression relative to Δ7 SMN2 transcripts, we used real-time quantitative PCR (RT-qPCR) at PD7; the mice were treated with DG9-PMO at PD0. In both doses, DG9-PMO treatment led to a 4- to 30-fold higher FL-SMN2 expression than NT control in both peripheral and CNS tissues (Figure 2A and Supplemental Figure 3A). It also led to a ~5-fold increase in FL-SMN2 expression when compared with unconjugated PMO, MOE, and R6G-PMO treatments in the majority of the tissues (Figure 2A, Supplemental Figure 3A, and Supplemental Figure 1F). […] SMN levels were higher in CNS tissues in the DG9-PMO–treated than MOE-treated mice, though no statistical significance was seen. […] SMN levels were similar in DG9-PMO and MOE in the tissues collected from mice at PD30.
Total protein was extracted from frozen tissues harvested at PD7 or PD30 by using RIPA buffer (MilliporeSigma) with cOmplete, Mini, EDTA-free protease inhibitor cocktail (MilliporeSigma). The protein concentration was quantified using the Pierce BCA Protein Assay Kit (Thermo Fisher Scientific). […] The bands were detected using the Amersham ECL Select Western Blotting Detection Kit (GE Healthcare) and visualized by the ChemiDoc Touch Imaging system (Bio-Rad). […]

CC(=O)N[C@@H](Cc1ccc(O)cc1)C(=O)N[C@@H](C)C(=O)N[C@H](CCCNC(=N)N)C(=O)N[C@H](C(=O)N[C@@H](CCCNC(=N)N)C(=O)N[C@@H](CCCNC(=N)N)C(=O)N[C@H](CCCNC(=N)N)C(=O)NCC(=O)N1CCC[C@H]1C(=O)N[C@@H](CCCNC(=N)N)C(=O)NCC(=O)N[C@@H](Cc1ccc(O)cc1)C(=O)N[C@@H](C)C(=O)N[C@H](CCCNC(=N)N)C(=O)N[C@H](C(=O)N[C@@H](CCCNC(=N)N)C(=O)N[C@@H](CCCNC(=N)N)C(=O)N[C@H](CCCNC(=N)N)C(=O)NCC(=O)N1CCC[C@H]1C(=O)N[C@@H](CCCNC(=N)N)C(=O)N[C@H](CCCNC(=N)N)C(=O)N1C[C@@H](COP(=O)(N(C)C)N2C[C@@H](COP(=O)(N(C)C)N3C[C@@H](COP(=O)(N(C)C)N4C[C@@H](COP(=O)(N(C)C)N5C[C@@H](COP(=O)(N(C)C)N6C[C@@H](COP(=O)(N(C)C)N7C[C@@H](COP(=O)(N(C)C)N8C[C@@H](COP(=O)(N(C)C)N9C[C@@H](COP(=O)(N(C)C)N%10C[C@@H](COP(=O)(N(C)C)N%11C[C@@H](COP(=O)(N(C)C)N%12C[C@@H](COP(=O)(N(C)C)N%13C[C@@H](COP(=O)(N(C)C)N%14C[C@@H](COP(=O)(N(C)C)N%15C[C@@H](COP(=O)(N(C)C)N%16C[C@@H](COP(=O)(N(C)C)N%17C[C@@H](COP(=O)(N(C)C)N%18C[C@@H](COP(=O)(N(C)C)N%19CCC(C(N)=O)CC%19)O[C@@H](n%19cc(C)c(=O)[nH]c%19=O)C%18)O[C@@H](n%18ccc(N)nc%18=O)C%17)O[C@@H](n%17cnc%18c(N)ncnc%18%17)C%16)O[C@@H](n%16ccc(N)nc%16=O)C%15)O[C@@H](n%15cc(C)c(=O)[nH]c%15=O)C%14)O[C@@H](n%14cc(C)c(=O)[nH]c%14=O)C%13)O[C@@H](n%13cc(C)c(=O)[nH]c%13=O)C%12)O[C@@H](n%12ccc(N)nc%12=O)C%11)O[C@@H](n%11cnc%12c(N)ncnc%12%11)C%10)O[C@@H](n%10cc(C)c(=O)[nH]c%10=O)C9)O[C@@H](n9cnc%10c(N)ncnc%109)C8)O[C@@H](n8cnc9c(N)ncnc98)C7)O[C@@H](n7cc(C)c(=O)[nH]c7=O)C6)O[C@@H](n6cnc7c(=O)[nH]c(N)nc76)C5)O[C@@H](n5ccc(N)nc5=O)C4)O[C@@H](n4cc(C)c(=O)[nH]c4=O)C3)O[C@@H](n3cnc4c(=O)[nH]c(N)nc43)C2)O[C@@H](n2cnc3c(=O)[nH]c(N)nc32)C1)C(C)C)C(C)C (stereo partly shown) [DG9-PMO]
FL-SMN2 expression, mild SMA model (F0) (SMN2 (ISS-N1 intron 7)): significant increase in the FL-SMN2 expression in both the CNS and peripheral tissues | uptake of PMO versus unconjugated PMO, mild SMA model (F0) [1]: significantly increased the uptake of PMO in the CNS and peripheral tissues | SMN expression at PD30 (Western blotting) (SMN protein; 40 mg/kg s.c. at PD0, tissues at PD30): sustained levels of SMN expression at PD30 | SMN protein levels (Western blotting) (SMN protein; s.c. at PD0, tissues at PD7, relative to β-tubulin): increased SMN protein levels in both the peripheral and CNS tissues
